{
  "source": "patent US20130230485A1",
  "about": "“Methods for Treating Patients Undergoing Multi-Cycle Chemotherapy” (priority 2012, published 2013)",
  "key": {"[1]": {"system": "patients with recurrent ovarian cancer receiving gemcitabine and a platin", "experiment": "Phase 2 study: adverse events / safety analysis", "assay_type": "in vivo, human", "source_text": "(§1) Following Institutional Review Board protocol approval and patient signature of an informed consent form, eligible patients were randomized in a 1:1:1 ratio to receive 100 mcg/kg/day TXA127, 300 mcg/kg/day TXA127, or placebo with gemcitabine plus carboplatin or cisplatin. The randomization was stratified by the patients' intended chemotherapy regimen (see below). The Investigator, patient, and Sponsor were blinded to the treatment assignment. Treatment consisted of up to six consecutive 21-day cycles of one of the following chemotherapy regimens:\n(§2) Regimen A • Intravenous cisplatin therapy at a dose between 30 and 50 mg/m^2 (inclusive) given on Day 1 of the cycle • Intravenous gemcitabine at a dose of 800 mg/m^2 given on Day 1 after cisplatin and on Day 8 of the cycle • Regimen B • Intravenous gemcitabine at a dose of 1,000 mg/m^2 given on Days 1 and 8 of the cycle • Intravenous carboplatin AUC range of 4-6 given on Day 1 of the cycle after gemcitabine\n(§3) Study drug (TXA127 or placebo) was administered subcutaneously during each treatment cycle once daily for 5 consecutive days following the first chemotherapy agent (Days 2-6) and for 7 consecutive days following the second chemotherapy agent (Days 9-15). At Baseline, End-of-Treatment and weekly throughout each treatment cycle, blood specimens were collected for determination of hematologic variables. Hematologic responses were evaluated based on the National Cancer Institute Common Terminology Criteria for Adverse Events (NCl-CTCAE), Version 3.0.\nThirty-two patients who underwent randomization were included in the efficacy analysis according to their randomly assigned treatment group (intention-to-treat principle). Two additional patients were excluded from this analysis: one patient treated with 100 mcg/kg TXA127 was excluded due to consent withdrawal and one patient treated with 300 mcg/kg TXA127 was excluded due to disease progression. Both patients initiated a single cycle of chemotherapy and had no study drug-related adverse events. All patients were included in the safety analysis."}, "[2]": {"system": "patients with recurrent ovarian cancer receiving gemcitabine and a platin", "experiment": "Phase 2 study: pharmacodynamic effects on peripheral platelet counts and ANC", "assay_type": "in vivo, human", "source_text": "as §1, §2, §3\nThe following parameters were evaluated to assess the pharmacodynamic effects of TXA127 on peripheral platelet counts: nadir platelet count, maximal platelet count, and maximum percentage increase and decrease from baseline."}},
  "note": "Entries after “also recorded” stand apart in the source; their conditions may differ.",
  "data": [
    {"molecule": "CC[C@H](C)[C@H](NC(=O)[C@H](Cc1ccc(O)cc1)NC(=O)[C@@H](NC(=O)[C@H](CCCNC(=N)N)NC(=O)[C@@H](N)CC(=O)O)C(C)C)C(=O)N[C@@H](Cc1c[nH]cn1)C(=O)N1CCC[C@H]1C(=O)O", "note": "[TXA127, Asp-Arg-Val-Tyr-Ile-His-Pro]", "values": [
      {"measurement": "Frequency of Adverse Events: Abdominal Distension", "setting": "[1]; 100 mcg group (11 patients)", "value": 1},
      {"measurement": "Frequency of Adverse Events: Abdominal Pain", "setting": "[1]; 100 mcg group (11 patients)", "value": 4},
      {"measurement": "Frequency of Adverse Events: Anaemia", "setting": "[1]; 100 mcg group (11 patients)", "value": 4},
      {"measurement": "Frequency of Adverse Events: Arthralgia", "setting": "[1]; 100 mcg group (11 patients)", "value": 1},
      {"measurement": "Frequency of Adverse Events: Back Pain", "setting": "[1]; 100 mcg group (11 patients)", "value": 5},
      {"measurement": "Frequency of Adverse Events: Constipation", "setting": "[1]; 100 mcg group (11 patients)", "value": 7},
      {"measurement": "Frequency of Adverse Events: Cough", "setting": "[1]; 100 mcg group (11 patients)", "value": 0},
      {"measurement": "Frequency of Adverse Events: Decreased Appetite", "setting": "[1]; 100 mcg group (11 patients)", "value": 3},
      {"measurement": "Frequency of Adverse Events: Dizziness", "setting": "[1]; 100 mcg group (11 patients)", "value": 3},
      {"measurement": "Frequency of Adverse Events: Dyspepsia", "setting": "[1]; 100 mcg group (11 patients)", "value": 4},
      {"measurement": "Frequency of Adverse Events: Dyspnea", "setting": "[1]; 100 mcg group (11 patients)", "value": 0},
      {"measurement": "Frequency of Adverse Events: Dysuria", "setting": "[1]; 100 mcg group (11 patients)", "value": 2},
      {"measurement": "Frequency of Adverse Events: Epistaxis", "setting": "[1]; 100 mcg group (11 patients)", "value": 0},
      {"measurement": "Frequency of Adverse Events: Fatigue", "setting": "[1]; 100 mcg group (11 patients)", "value": 6},
      {"measurement": "Frequency of Adverse Events: Headache", "setting": "[1]; 100 mcg group (11 patients)", "value": 5},
      {"measurement": "Frequency of Adverse Events: Hypersensitivity", "setting": "[1]; 100 mcg group (11 patients)", "value": 1},
      {"measurement": "Frequency of Adverse Events: Leukopenia", "setting": "[1]; 100 mcg group (11 patients)", "value": 3},
      {"measurement": "Frequency of Adverse Events: Nausea", "setting": "[1]; 100 mcg group (11 patients)", "value": 7},
      {"measurement": "Frequency of Adverse Events: Neutropenia", "setting": "[1]; 100 mcg group (11 patients)", "value": 5},
      {"measurement": "Frequency of Adverse Events: Oropharyngeal Pain", "setting": "[1]; 100 mcg group (11 patients)", "value": 1},
      {"measurement": "Frequency of Adverse Events: Pyrexia", "setting": "[1]; 100 mcg group (11 patients)", "value": 3},
      {"measurement": "Frequency of Adverse Events: Rash", "setting": "[1]; 100 mcg group (11 patients)", "value": 1},
      {"measurement": "Frequency of Adverse Events: Thrombocytopenia", "setting": "[1]; 100 mcg group (11 patients)", "value": 5},
      {"measurement": "Frequency of Adverse Events: Vomiting", "setting": "[1]; 100 mcg group (11 patients)", "value": 4},
      {"measurement": "thrombocytosis following treatment", "setting": "[1]; 100 mcg/kg TXA127", "value": "One patient experienced thrombocytosis"},
      {"measurement": "patients who discontinued study drug due to a treatment-emergent adverse event", "setting": "[1]; 100 mcg/kg group", "value": "Two"},
      {"measurement": "Frequency of Adverse Events: Abdominal Distension", "setting": "[1]; 300 mcg group (13 patients)", "value": 4},
      {"measurement": "Frequency of Adverse Events: Abdominal Pain", "setting": "[1]; 300 mcg group (13 patients)", "value": 1},
      {"measurement": "Frequency of Adverse Events: Anaemia", "setting": "[1]; 300 mcg group (13 patients)", "value": 5},
      {"measurement": "Frequency of Adverse Events: Arthralgia", "setting": "[1]; 300 mcg group (13 patients)", "value": 1},
      {"measurement": "Frequency of Adverse Events: Back Pain", "setting": "[1]; 300 mcg group (13 patients)", "value": 5},
      {"measurement": "Frequency of Adverse Events: Constipation", "setting": "[1]; 300 mcg group (13 patients)", "value": 5},
      {"measurement": "Frequency of Adverse Events: Cough", "setting": "[1]; 300 mcg group (13 patients)", "value": 2},
      {"measurement": "Frequency of Adverse Events: Decreased Appetite", "setting": "[1]; 300 mcg group (13 patients)", "value": 0},
      {"measurement": "Frequency of Adverse Events: Dizziness", "setting": "[1]; 300 mcg group (13 patients)", "value": 3},
      {"measurement": "Frequency of Adverse Events: Dyspepsia", "setting": "[1]; 300 mcg group (13 patients)", "value": 2},
      {"measurement": "Frequency of Adverse Events: Dyspnea", "setting": "[1]; 300 mcg group (13 patients)", "value": 5},
      {"measurement": "Frequency of Adverse Events: Dysuria", "setting": "[1]; 300 mcg group (13 patients)", "value": 1},
      {"measurement": "Frequency of Adverse Events: Epistaxis", "setting": "[1]; 300 mcg group (13 patients)", "value": 1},
      {"measurement": "Frequency of Adverse Events: Fatigue", "setting": "[1]; 300 mcg group (13 patients)", "value": 7},
      {"measurement": "Frequency of Adverse Events: Headache", "setting": "[1]; 300 mcg group (13 patients)", "value": 5},
      {"measurement": "Frequency of Adverse Events: Hypersensitivity", "setting": "[1]; 300 mcg group (13 patients)", "value": 2},
      {"measurement": "Frequency of Adverse Events: Leukopenia", "setting": "[1]; 300 mcg group (13 patients)", "value": 2},
      {"measurement": "Frequency of Adverse Events: Nausea", "setting": "[1]; 300 mcg group (13 patients)", "value": 9},
      {"measurement": "Frequency of Adverse Events: Neutropenia", "setting": "[1]; 300 mcg group (13 patients)", "value": 8},
      {"measurement": "Frequency of Adverse Events: Oropharyngeal Pain", "setting": "[1]; 300 mcg group (13 patients)", "value": 1},
      {"measurement": "Frequency of Adverse Events: Pyrexia", "setting": "[1]; 300 mcg group (13 patients)", "value": 2},
      {"measurement": "Frequency of Adverse Events: Rash", "setting": "[1]; 300 mcg group (13 patients)", "value": 5},
      {"measurement": "Frequency of Adverse Events: Thrombocytopenia", "setting": "[1]; 300 mcg group (13 patients)", "value": 2},
      {"measurement": "Frequency of Adverse Events: Vomiting", "setting": "[1]; 300 mcg group (13 patients)", "value": 5},
      {"measurement": "patients who discontinued study drug due to a treatment-emergent adverse event", "setting": "[1]; 300 mcg/kg group", "value": "Two"},
      {"measurement": "safety with these chemotherapy regimens", "setting": "[1]; up to 6 cycles of gemcitabine + platin", "value": "The safety of TXA127 was demonstrated"},
      {"measurement": "ANC relative to placebo (in words)", "setting": "[2]; 100 mcg/kg TXA127", "value": "decrease in the nadir ANC relative to placebo; also recorded: significant reduction in ANC"},
      {"measurement": "maximal percentage decrease in ANC post-baseline", "setting": "[2]; 100 mcg/kg TXA127", "value": 85, "unit": "%"},
      {"measurement": "maximal percentage decrease in ANC post-baseline", "setting": "[2]; 300 mcg/kg TXA127", "value": 78, "unit": "%"}
    ]}
  ]
}
